The text below walks through data of paper PMC9138102, “The Role of ZIP9 and Androgen Receptor in the Establishment of Tight Junctions between Adult Rat Sertoli Cells” (Biology, 2022).

Where two headings read alike, the source gives them in different places.

Assay [1] concerns androgen binding site ZIP9 of the Sertoli cell line 93RS2. Further details: method as in PMID 35053053, PMID 35053017. To be noted: 93RS2 / L6 (cell line not separately stated); cited from earlier work.
The test system of assay [2] is Erk1/2. Nature of the assay: phospho-Erk1/2 immunofluorescence in PASC1 cells after AR or ZIP9 silencing. The class given is cell-based, rat. The settings on record: 10 nM testosterone or 10 µM IAPG, 24 h. The method, then:
PASC1 cells were plated at a density of 3.0 × 10^4 on 24-well plates (1 mL/well) and incubated 48 h at 37 °C and 5% CO2 until a confluence of roughly 80% was reached. Cells were rinsed with DPBS and fixed with 100% ice-cold methanol (Roth, Karlsruhe, Germany) on ice for 10 min directly or after stimulation with vehicle, 10 nM testosterone, or 1 µM P1 for 24 h. Cells were then washed with DPBS three times for 5 min, and then incubated in blocking solution (PBS with 3% BSA and 0.3% Triton X-100, both from Sigma-Aldrich) for 1 h at room temperature. The blocking solution was replaced by fresh blocking solution containing the primary antibodies for detection of either AR, p-Erk1/2, p-CREB/p-ATF-1, claudin-1 (Cldn-1), or zonula occludens-1 (ZO-1) (Supplementary Table S1) and incubated overnight at 4 °C. Cells were washed 3 times with DPBS for 3 min each at RT on an orbital shaker, freshly made blocking solution with the appropriate Alexafluor 488-conjugated donkey anti-rabbit secondary antibody was added for 1 h at room temperature on an orbital shaker. After washing 3 times with DPBS, images were obtained using an inverse Olympus IX81 microscope equipped with a fluorescence system. […] The data obtained were analyzed by GraphPad Prism5 (GraphPad Software, Inc., La Jolla, CA, USA).
(§1) For silencing ZIP9 or AR expression, PASC1 cells were treated with commercially available siRNA directed against the expression of ZIP9 or the AR by following the manufacturer’s protocol (Silencer ® Select, siRNA Invitrogen, Darmstadt, Germany). The following oligonucleotides were used: 5′ […]tt3′ and 5′ […]ta 3′ (ZIP9-siRNA for ZIP9 silencing) and 5′[…]tt3′ plus 5′ […]ag 3′ (AR-siRNA for AR silencing). Negative control siRNA (nc-siRNA) was provided in the siRNA kit from the same manufacturer. After incubation of PASC1 for 48 h with ZIP9-siRNA, AR-siRNA, or nc-siRNA, preparation of samples for qRT-PCR, TER measurement, or immunofluorescence experiments were carried out as described above.

The next assay concerns PASC1 cells. The assay can be described thus: Transepithelial electrical resistance (TER) across PASC1 cell layers. The class given is cell-based, rat. To be noted: 10 nM testosterone or 10 µM IAPG, 0, 24, 48, 72 h, n = 6, means ± SEM. The method, then: TER measurements were performed as described. Briefly, 6.0 × 10^4 cells/cm^2 of androgen receptor (AR)- or ZIP9-knockdown PASC1 or non-treated PASC1 cells were seeded on 0.4 μm inserts of 24-well plates (Greiner bio one, Frickenhausen, Germany) and cultured for 48 h until they reached confluence. […] As testosterone was dissolved in ethanol (vehicle), the same volume of ethanol was added to the peptide-treated cells and untreated controls. TER measurements were made with a Millicell ERS-2 epithelial Volt-Ohm meter (Merck Millipore, Darmstadt, Germany). ΩXcm^2 was calculated according to the protocol of the manufacturer by setting the resistance of cell-free inserts to zero.
as §1

Another assay concerns CREB/ATF-1. Nature of the assay: p-CREB/p-ATF-1 immunofluorescence in PASC1 cells after AR or ZIP9 silencing. The class given is cell-based, rat. The settings on record: 10 nM testosterone or 10 µM IAPG, 24 h, n = 3 × 25.
Assay [3] deals with Erk1/2. Further details: method as in PMID 35053053. To be noted: Sertoli cell line 93RS2, cited from earlier work. The text has this:
Activation of Erk1/2 by phosphorylation occurs in the so-called non-classical signaling pathway of testosterone.

For the next assay, the system named is AR. The assay can be described thus: AR nuclear translocation in PASC1 cells (immunofluorescence). To be noted: 2 h. It counts as cell-based, rat.
The subject of a further assay is JAM-3-specific mRNA. The assay can be described thus: JAM-3 mRNA expression in PASC1 cells, qRT-PCR. To be noted: 10 nM testosterone or 10 µM IAPG, 24 h, n = 3 × 2. The class given is cell-based, rat. The method, then: Primers were designed with http://www.ncbi.nlm.nih.gov/tools/primer-blast (Accessed on 28 February 2022) and were all intron-spanning. Total RNA was isolated from PASC1 with the RNeasy Mini-Kit (Qiagen, Hilden, Germany) and subjected to DNase I treatment as described by the manufacturer. The Reverse Transcription-System first strand cDNA synthesis kit (Invitrogen, Darmstadt, Germany) was used for cDNA synthesis, as recommended. Quantitative real-time PCR (qRT-PCR) amplification was performed in duplicate with iQ TM SYBR Green Super-mix (Bio-Rad; Munich; Germany) on the iCycler iQ System (Bio-Rad). After an initial heating at 94 °C for 5 min, 40 amplification cycles were performed consisting of an initial denaturation of the DNA double strands at 94 °C for 14 s, an annealing phase of the primers at 59 °C for 30 s, and extension of the primers for 15 s at 72 °C. A finalizing extension at 72 °C was carried out for 10 min. Gene expression was measured after reaching the ct value and calculated using the Delta–Delta Ct method. Detection of GAPDH-specific mRNA/cDNA served as normalization of the quantification. Oligonucleotides used in the qRT-PCR, their annealing position, and the expected size of the amplificates are listed in Supplementary Table S2.
as §1
A general note: In qPCR the cycle at which signal appears reflects the starting amount.

For the compound `C[C@]12CC[C@H]3[C@@H](CCC4=CC(=O)CC[C@@]43C)[C@@H]1CC[C@@H]2O` [testosterone], in assay [1], the “Prevention of T-BSA-FITC binding” value is “Its binding can be prevented”. In addition, the “Stimulatory effect on Erk1/2 phosphorylation, nc-siRNA versus AR-siRNA” value with Erk1/2 [2] is “not significantly different from each other”. Besides, the “Erk1/2 phosphorylation (green fluorescence)” value in the assay with Erk1/2 [2] (AR-siRNA, ** p ≤ 0.01) is “responded with augmented phosphorylation of Erk1/2”; in the assay with Erk1/2 [2] (ZIP9-siRNA, ns), “entirely prevented stimulation of Erk1/2 phosphorylation”; in the assay with Erk1/2 [2] (nc-siRNA, ** p ≤ 0.01), “low (Figure 6A) relative to the signal obtained in cells exposed to testosterone”. The “TJ formation (TER)” value is given as “had the same effect” in the assay with PASC1 cells (AR-siRNA); “failed to stimulate TJ formation” in the assay on PASC1 cells (ZIP9-siRNA); “tighter TJ than the control already after 1 day of treatment, as demonstrated by increased TER” in the assay on PASC1 cells (nc-siRNA). Also, the results for the CREB/ATF-1 phosphorylation entry with CREB/ATF-1 (AR-siRNA), in the assay on CREB/ATF-1 (ZIP9-siRNA) and with CREB/ATF-1 (nc-siRNA) were “to the same extent as cells treated with nc-siRNA”, “failed to stimulate phosphorylation of CREB/ATF-1” and “stimulated CREB/ATF-1 phosphorylation”, respectively. In addition, the “Concentration for maximum Erk1/2 phosphorylation” value with Erk1/2 [3] (testosterone) is 0.01 µM. Also, in the assay with AR (testosterone 10 nM), the “AR localization / translocation into the nucleus” value is on record as “all green fluorescence was found within the nuclei”. Also, the results for the “JAM-3 mRNA expression” value in the assay with JAM-3-specific mRNA (AR-siRNA), in the assay on JAM-3-specific mRNA (ZIP9-siRNA) and with JAM-3-specific mRNA (nc-siRNA) were “upregulated”, “remained at basal levels” and “upregulated”, respectively.
For the compound IAPG, the “Prevention of T-BSA-FITC binding” value in assay [1] is reported as “Its binding can be prevented”. The “Stimulatory effect on Erk1/2 phosphorylation, nc-siRNA versus AR-siRNA” value in the assay on Erk1/2 [2] is “not significantly different from each other”. For the same compound, the “Erk1/2 phosphorylation (green fluorescence)” value in the assay on Erk1/2 [2] (AR-siRNA, ** p ≤ 0.01) is given as “responded with augmented phosphorylation of Erk1/2”; in the assay with Erk1/2 [2] (ZIP9-siRNA, ns) it was “entirely prevented stimulation of Erk1/2 phosphorylation”; in the assay with Erk1/2 [2] (nc-siRNA, ** p ≤ 0.01), “low (Figure 6A) relative to the signal obtained in cells exposed to testosterone (Figure 6B) or IAPG”. In addition, the “TJ formation (TER)” value is “had the same effect” in the assay with PASC1 cells (AR-siRNA); “failed to stimulate TJ formation” in the assay on PASC1 cells (ZIP9-siRNA); “tighter TJ than the control already after 1 day of treatment, as demonstrated by increased TER” in the assay with PASC1 cells (nc-siRNA). The CREB/ATF-1 phosphorylation result with CREB/ATF-1 (AR-siRNA) is recorded as “to the same extent as cells treated with nc-siRNA”; in the assay with CREB/ATF-1 (ZIP9-siRNA), “failed to stimulate phosphorylation of CREB/ATF-1”; with CREB/ATF-1 (nc-siRNA), “stimulated CREB/ATF-1 phosphorylation”. Moreover, the “Concentration for maximum Erk1/2 phosphorylation” value in the assay with Erk1/2 [3] (IAPG) was 10 µM. The “AR localization / translocation into the nucleus” value in the assay on AR (IAPG 10 µM) is given as “A translocation of the AR from the cytosol into the nucleus did not occur”. In addition, the “JAM-3 mRNA expression” value with JAM-3-specific mRNA (AR-siRNA) is “upregulated”; with JAM-3-specific mRNA (ZIP9-siRNA), “remained at basal levels”; in the assay with JAM-3-specific mRNA (nc-siRNA), “upregulated”.
